Experimental data published in patent publication US20260041703A1, “HYPERBRANCHED DEXTRINS FOR TOPICAL USE IN THE PREVENTION OR TREATMENT OF AT LEAST ONE SYMPTOM OF SKIN INFLAMMATION” (ROQUETTE FRERES, priority 2022, published 2026).

What was measured:
IL-1β = assay: Semi-quantitative fluorescence cytokine array (Human Cytokine Array G3), IL-1β; assay type: cell-based; settings: 0.5% SLS positive control (6 hours)
Procedure: (§1) Cell culture supernatants collected after epidermal treatment are tested using the Human Cytokine Array G3 kit (RayBiotech).
(§2) On a glass slide containing the different specific antibodies, supernatants are deposited at a rate of 100 μL per well. A cocktail of biotin-coupled secondary antibodies is then added. With the addition of streptavidin, signal intensities are detected by fluorescence. Each step is followed by several washes.
(§3) The ratios (fluorescent signal intensity of the marker in the presence of the samples/fluorescent signal intensity of the marker in the untreated control) were calculated for each treatment from n=3 epidermal culture supernatants (except for the untreated control, n=2).
(§4) A ratio >1.5 reflects overexpression of the inflammatory marker.
(§5) A ratio <0.65 indicates underexpression of the inflammatory marker.
(§6) According to the supplier's criteria, signals are usable when they are greater than the average of the background noise+2SD.

VEGF = assay: Semi-quantitative fluorescence cytokine array (Human Cytokine Array G3), VEGF; assay type: cell-based; settings: 0.5% SLS positive control (6 hours)
Procedure: as §1, §2, §3, §4, §5, §6

[1] = test system: reconstructed human epidermis (normal human epidermal keratinocytes, NHEK); assay: MTT cell proliferation (viability) test on 2D reconstructed human epidermis after SLS inflammation; assay type: cell-based; settings: % of untreated control
Procedure: Irritating chemical compounds are able to penetrate the stratum corneum and are cytotoxic to cells in the underlying layers. […] Cell viability is measured upon metabolism, by mitochondrial succinic dehydrogenase, of the vital dye MTT [3-(4,5-dimethylthiazol-2-yl)-2,5-bromide diphenyltetrazolium, thiazolyl blue; EINECS number 206-069-5, CAS number 298-93-1)], to a blue formazan salt which is measured quantitatively after its extraction from tissues.
The colored solution is measured spectrophotometrically at 570 nm using the Molecular Devices Vmax microplate reader, and absorbance values are recorded using the SOFTmax PRO v4.7.1 software. Statistical analysis is performed using GraphPad Prism v5.03 software.
Cytotoxicity of samples was tested using the epidermis model and is expressed as a percentage of untreated control (UTC) tissue.

IL-8 = assay: ELISA assay of inflammation marker IL-8 in supernatant of 2D reconstructed human epidermis; assay type: cell-based; settings: 0.5% SLS positive control (6 hours)
Text: After washing, HRP-streptavidin is deposited in the wells. […] The inflammatory response is interpreted as a sample-to-untreated ratio greater than or equal to 2.
A ratio greater than or equal to 2 reflects overexpression of the inflammatory marker while a ratio less than 2 indicates non-expression of the inflammatory marker.

IL-1α [2] = assay: ELISA assay of inflammation marker IL-1α in supernatant of 2D reconstructed human epidermis; settings: 0.5% SLS positive control (6 hours)
Procedure: This model comprises a monolayer of normal human epidermal keratinocytes (NHEK, one of the main cell types of the skin), which have been cultured on inert polycarbonate inserts.
The epidermises were treated with a 0.5% aqueous solution of Sodium Lauryl Sulfate (SLS) for 6 hours to create inflammation of the reconstructed epidermis, then the surface of the epidermises was rinsed with 500 μL of PBS. 20 μL of different concentrations of hydrogenated and highly branched dextrins (10 and 5% in ultrapure water) and 0.05% Betamethasone cream (Biogaran cream, a corticoid with an anti-inflammatory role) were applied topically to the epidermis for 20 hours at 37° C. No application was made for the SLS control within 20 hours of rinsing with PBS. […]
For this, cell supernatants are collected after the required treatment time and commercially available ELISA kits are used to quantitatively determine the presence of inflammatory markers.
These ELISA kits are designed for quantitative measurement of the aforementioned markers, particularly in culture supernatants using specific human antibodies. […] A developer solution changes the color from blue to yellow, and its intensity is measured at 450 nm using the Molecular Devices Vmax microplate reader. Absorbance values are recorded and analyzed using SOFTmax PRO v4.7.1 software. […]

IL-1α [3] = assay: Semi-quantitative fluorescence cytokine array (Human Cytokine Array G3), IL-1α; assay type: cell-based; settings: 0.5% SLS positive control (6 hours); fluorescent signal intensity
Procedure: as §1, §2, §3, §4, §5, §6

RANTES = assay: Semi-quantitative fluorescence cytokine array (Human Cytokine Array G3), RANTES; assay type: cell-based; settings: 0.5% SLS positive control (6 hours)
Procedure: as §1, §2, §3, §4, §5, §6

[4] = test system: 3D reconstructed human epidermis; assay: Membrane integrity (LDH release, colorimetry) in 3D reconstructed human epidermis model; assay type: cell-based
Text: The aim of the study was to assess the membrane integrity of skin cells in a three-dimensional (3D) reconstructed human epidermis model, by measuring the amount of the enzyme lactate dehydrogenase (LDH) in the culture supernatant, using colorimetry. LDH is an enzyme that is released in the event of cell death. The absence of LDH secretion is a sign that the integrity of epidermal cell membranes is preserved. Samples of 3D reconstructed human epidermis were immersed in an aqueous solution containing 0.5% by weight of sodium lauryl sulfate, for 6 hours. […] The amount of LDH secreted into the supernatant was then determined colorimetrically.

SMILES: CCCCCCCCCCCCOS(=O)(=O)[O-].[Na+] [SLS, Sodium Lauryl Sulfate]
- IL-1β Sample/Untreated ratio (IL-1β): 0.8
- VEGF Sample/Untreated ratio (VEGF): 1.9
- Viability % ([1]; 0.5% SLS positive control (6 hours)): 82.1%
- Viability % ([1]; 2% SLS positive control, mean of 3 replicates): 0.9%
- IL-8 Sample:Untreated ratio (IL-8): 3.2
- IL-8 assayed quantity (IL-8): (453 pg/mL)
- IL-1a Sample:Untreated ratio (IL-1α [2]): 2.3
- IL-1a assayed quantity (IL-1α [2]): (61 pg/mL)
- IL-1α Sample/Untreated ratio (IL-1α [3]): 2.3
- RANTES Sample/Untreated ratio (RANTES): 6.7

SMILES: C[C@H]1C[C@H]2[C@@H]3CCC4=CC(=O)C=C[C@]4(C)[C@@]3(F)[C@@H](O)C[C@]2(C)[C@@]1(O)C(=O)CO [betamethasone]
- Membrane integrity (%) ([4]; 0.5% SLS (6 hours) + 0.5% betamethasone (20 hours)): 110.7%

SMILES: CC(C)=CCC[C@](C)(O)C1CC=C(C)CC1 (stereo partly drawn) [bisabolol]
- Membrane integrity (%) ([4]; 0.5% SLS (6 hours) + 0.5% bisabolol (20 hours)): 16.8%
